These compounds were tested against T1, human PPAR γ 2 (Homo sapiens, UniProt P37231) (assay: PPAR γ transcriptional activity, luciferase reporter, test compound alone). Details: concentration indicating Emax/2, MG63 cells transfected with pSG5-hPPARg and pGV-P2-PPRE, 24 hr.
T1 construct: expressed in transfected cells; host or cells: human osteosarcoma MG63, transiently co-transfected with pSG5-hPPARg and the reporter pGV-P2-PPRE
T1 sequence (P37231 1-505): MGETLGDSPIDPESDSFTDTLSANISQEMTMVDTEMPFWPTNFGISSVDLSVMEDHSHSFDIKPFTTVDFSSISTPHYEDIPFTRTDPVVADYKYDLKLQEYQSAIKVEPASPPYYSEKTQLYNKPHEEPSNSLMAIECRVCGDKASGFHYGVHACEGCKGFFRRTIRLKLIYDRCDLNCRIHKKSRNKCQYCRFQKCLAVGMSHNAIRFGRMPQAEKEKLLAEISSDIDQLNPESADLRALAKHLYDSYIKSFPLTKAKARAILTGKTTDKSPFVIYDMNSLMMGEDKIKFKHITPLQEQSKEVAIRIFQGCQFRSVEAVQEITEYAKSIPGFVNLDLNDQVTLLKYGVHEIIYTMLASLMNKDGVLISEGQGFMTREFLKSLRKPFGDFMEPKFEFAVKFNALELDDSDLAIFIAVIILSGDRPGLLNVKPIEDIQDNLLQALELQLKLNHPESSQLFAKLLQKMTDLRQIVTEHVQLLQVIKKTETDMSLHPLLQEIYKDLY
Assay type: cell-based
Procedure, shortened: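 Human osteosarcoma MG63 cells transiently co-transfected with human PPARγ2 expression plasmid and PPRE-luciferase reporter (rat acyl-CoA oxidase promoter element), then exposed 24 h to test compound alone. Luciferase luminescence gave dose-response curves; EC50 is the concentration giving half of the compound's maximal activity (Emax).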

| EC50 [nM] | Compound |
| --- | --- |
| 87 | COc1cnc(NS(=O)(=O)c2ccc(NC(=O)c3cc([N+](=O)[O-])ccc3Cl)cc2)nc1 [Example 105, N-[4-[(5-Methoxypyrimidin-2-yl)aminosulfonyl]phenyl]-(2-chloro-5-nitrophenyl)carboxamide] |
| 49 | N=C(N)NS(=O)(=O)c1ccc(NC(=O)c2cc([N+](=O)[O-])ccc2Cl)cc1 [Example 106, N-[4-(Amidinoaminosulfonyl)phenyl]-(2-chloro-5-nitrophenyl)carboxamide] |
| 57 | O=C(Nc1ccc(S(=O)(=O)Nc2ccnn2-c2ccccc2)cc1)c1cc([N+](=O)[O-])ccc1Cl [Example 108, N-[4-[(2-Phenyl-(2H)-pyrazol-3-yl)aminosulfonyl]phenyl]-(2-chloro-5-nitrophenyl)carboxamide] |
| 15 | O=C(Nc1nnc(-c2ccccc2)s1)c1cc([N+](=O)[O-])ccc1Cl [Example 110, N-(5-Phenyl-[1,3,4]thiadiazol-2-yl)-(2-chloro-5—nitrophenyl)carboxamide] |
| 79 | O=C(Nc1nc(-c2ccc(F)c(F)c2)cs1)c1cc([N+](=O)[O-])ccc1Cl [Example 111, N-[4-(3,4-Difluorophenyl)thiazol-2-yl]-(2-chloro-5-nitrophenyl)carboxamide] |
| 8.7 | CC(=O)Nc1ccc(NC(=O)c2cc([N+](=O)[O-])ccc2Cl)cc1 [Example 117, N-(4-Acetylaminophenyl)-(2-chloro-5-nitrophenyl)carboxamide] |
| 21 | O=C(Nc1ccc(NC(=O)c2cc([N+](=O)[O-])ccc2Cl)cc1)c1ccccc1 [Example 119, N-(4-Benzoylaminophenyl)-(2-chloro-5-nitrophenyl)carboxamide] |
| 19 | O=C(Nc1ccc(NC(=O)c2cc([N+](=O)[O-])ccc2Cl)cc1)c1ccncc1 [Example 125, N-[4-(Pyridin-4-ylcarbonylamino)phenyl]-(2-chloro-5-nitrophenyl)carboxamide] |
| 130 | CCCCCCN(CCCCCC)c1ccc(NC(=O)c2cc([N+](=O)[O-])ccc2Cl)cc1 [Example 138, N-[4-(N,N-di-n-Hexylamino)phenyl]-(2-chloro-5-nitrophenyl)carboxamide] |
| 760 | CC(C)(C)c1cc(C(=O)Nc2ccc(NC(=O)c3cc([N+](=O)[O-])ccc3Cl)cc2)cc(C(C)(C)C)c1O [Example 157, N-[4-[(3,5-di-tert-Butyl-4-hydroxybenzoyl)amino]phenyl]-(2-chloro-5-nitrophenyl)carboxamide] |
| 11 | CN(C)c1cccc(NC(=O)c2cc([N+](=O)[O-])ccc2Cl)c1 [Example 176, N-(3-Dimethylamino)phenyl-(2-chloro-5-nitrophenyl)carboxamide] |
| 16 | O=C(Nc1ccc(S(=O)(=O)Nc2cccnc2)cc1)c1cc([N+](=O)[O-])ccc1Cl [Example 178] |
| 780 | O=C(Nc1ccc(S(=O)(=O)Nc2ccc(N3CCOCC3)cc2)cc1)c1cc([N+](=O)[O-])ccc1Cl [Example 179, N-[4-[4-(Morpholin-4-yl)phenyl]aminosulfonyl]phenyl-(2-chloro-5-nitrophenyl)carboxamide] |
| 5.6 | CCCNc1ccc(NC(=O)c2cc([N+](=O)[O-])ccc2Cl)cc1 [Example 181, N-[4-(N-Propylamino)phenyl]-(2-chloro-5-nitrophenyl)carboxamide] |
| 0.7 | CCCN(CC)c1ccc(NC(=O)c2cc([N+](=O)[O-])ccc2Cl)cc1 [Example 189, N-[4-(N-Ethyl-N-propylamino)phenyl]-(2-chloro-5-nitrophenyl)carboxamide] |
| 4.2 | O=C(Nc1cccc(O)c1)c1cc([N+](=O)[O-])ccc1Cl [Example 191, N-(3-Hydroxyphenyl)-(2-chloro-5-nitrophenyl)carboxamide] |
| 610 | CCN(c1ccc(NS(=O)(=O)c2ccc(NC(=O)c3cc([N+](=O)[O-])ccc3Cl)cc2)cc1)C(C)C [Example 232, N-[[4-[4-(N-Ethyl-N-isopropylamino)phenyl]aminosulfonyl]phenyl]-(2-chloro-5-nitrophenyl)carboxamide] |
| 44 | CC(O)c1cccc(NC(=O)c2cc([N+](=O)[O-])ccc2Cl)c1 (centres unmarked) [Example 239, N-[3-(1-Hydroxyethyl)phenyl]-(2-chloro-5-nitrophenyl)carboxamide] |
| 120 | O=C(Nc1ccc(NC(=S)Nc2cccnc2)cc1)c1cc([N+](=O)[O-])ccc1Cl [Example 257, N-[4-[(Pyridin-3-yl)aminothiocarbonylamino]phenyl]-(2-chloro-5-nitrophenyl)carboxamide] |
| 0.7 | O=C(Nc1ccc(NC(=S)Nc2ccncc2)cc1)c1cc([N+](=O)[O-])ccc1Cl [Example 259, N-[4-[(Pyridin-4-yl)aminothiocarbonylamino]phenyl]-(2-chloro-5-nitrophenyl)carboxamide] |
| 160 | N-(Ethoxyphenyl)-(2-chloro-5-nitrophenyl)carboxamide [Example 229] |
| 8.7 | N-[4-(Pyrrolidinylsulfonyl)phenyl]-(2-chloro-5-nitrophenyl)carboxamide [Example 152] |

| Compound | EC50 [nM] |
| --- | --- |
| Cc1ccc(S(=O)(=O)Nc2ccc(NC(=O)c3cc([N+](=O)[O-])ccc3Cl)cc2)cc1 [Example 116, N-[4-(4-Toluenesulfonylamino)phenyl]-(2-chloro-5-nitrophenyl)carboxamide] | 11 |
